Experimental data from PMC6054081, “De novo design of isopeptide bond-tethered triple-stranded coiled coils with exceptional resistance to unfolding and proteolysis: implication for developing antiviral therapeutics” (Chemical Science, 2015).
Bridge positions count the residues as written; N and C are the ends. Peptide text beside a SMILES is read from it. I, II: the chains in the order shown.

Key:
[1] = test system: HIV-1 Env-mediated cell–cell fusion; settings: read-out: EC50 (nM) for inhibiting cell–cell fusion; HL2/3 and TZM-bl cells coincubated 6–8 h at 37 °C, luciferase read-out; triplicate, mean ± standard deviation
Procedure: Cell–cell fusion assays were performed as described previously.[26] HL2/3 cells, which stably express HIV Gag, Env, Tat, Rev, and Nef proteins, as well as TZM-bl cells, which stably express large amounts of CD4 and CCR5, were obtained from the NIH AIDS Reference and Reagent Program (contributed by Drs Barbara Felber and George Pavlakis and Drs John C. Kappes and Xiaoyun Wu, respectively). TZM-bl cells (2.5 × 10^4 per well) and HL2/3 cells (7.5 × 10^4 per well) were coincubated in 96-well plates (Corning Costar) at 37 °C in 5% CO2 in the presence of different concentrations of inhibitors. After incubation for 6–8 h, the medium was aspirated, the cells were washed and lysed, and luciferase activity was measured using the Luciferase Assay System (Promega, Madison, WI) on a SpectraMax M5 plate reader (Molecular Devices, Sunnyvale, CA).

[2] = test system: HIV-1IIIB; test: HIV-1IIIB infection assay (MT-2 cells, p24 ELISA); assay type: cell-based; settings: 100 TCID50, p24 ELISA on fourth day post-infection, triplicate, mean ± standard deviation, read-out: EC50 (nM) for inhibiting HIV–1IIIB infection
Source text: (§1) To measure the inhibitory activity of the peptides on infection of HIV-1IIIB and HIV-1BaL, 1 × 10^4 MT-2 cells and TZM-b1 cells, respectively, were infected with 100 times the median tissue culture infective dose of a virus in the presence or absence of the peptides at graded concentrations. On the fourth day post-infection, the culture supernatants were collected for detection of p24 antigen using an enzyme-linked immunosorbent assay (ELISA). The percent inhibition by the peptides and EC50 values was calculated using Calcusyn software.[27]

[3] = test system: HIV-1BaL; test: HIV-1BaL infection assay (TZM-b1 cells, p24 ELISA); assay type: cell-based; settings: 100 TCID50, p24 ELISA on fourth day post-infection, triplicate, mean ± standard deviation, read-out: EC50 (nM) for inhibiting HIV-1BaL infection
Source text: as §1

[4] = CD thermal denaturation (Tm); assay type: physicochemical; settings: CD at 222 nm, 10 °C to 90 °C at 2 °C min–1, PBS pH 7.4, 10 μM peptide
Procedure: (§2) Lyophilized peptides were resuspended in ddH2O (pH 7.0) at a concentration of approximately 1 mg mL^–1. […] The peptides were incubated in a water bath set at 37 °C for 0.5 h before testing. CD spectra were acquired on an MOS-450 system (BioLogic, Claix, France) using the following parameters: band width, 4.0 nm; resolution, 0.1 nm; path length, 0.1 cm; response time, 4.0 s; and scanning speed, 50 nm min^–1. For CD thermal denaturation analysis, the temperature was controlled by a BioLogic TCU250 system, and CD spectra were monitored at 222 nm from 10 °C to 90 °C at a scan speed of 2 °C min^–1.
The samples were incubated at room temperature for 3 h before their full-range CD spectra or the ellipticities at 222 nm were recorded. For thermal denaturation studies, the stock peptide solutions were diluted with appropriate volumes of buffer and guanidine hydrochloride. Thermal denaturation was performed by monitoring the ellipticity change at 222 nm from 10 °C to 90 °C at a rate of 2 °C min^–1.
(§3) Table S1. Biophysical properties of the designed peptides a
(§4) a CD spectra of each designed peptide were monitored in PBS, pH 7.4. The final peptide concentration was 10 μM. […]
(§5) Table S2. Sequences of designed peptides a
(§6) a The Glu residues with a thioester side chain are underlined. Isopeptide bonds are formed between Lys-9 and Glu-14 (in […]

[5] = Sedimentation velocity analysis (SVA), oligomerization state; assay type: physicochemical; settings: 150 μM in PBS (pH 7.4), 60,000 rpm, 20 °C, 280 nm; for Sedimentation coefficient: SEDFIT; for Observed molecular mass (kDa) by sedimentation analysis: SEDFIT c(M)
Procedure: All measurements were performed on a ProteomelabTMXL-A/XL-I analytical ultracentrifuge (Beckman Coulter, Fullerton, CA, USA) at 20 °C, as described previously. In brief, three-channel cells were used with an An-60 Tirotor. Lyophilized peptides were resuspended in ddH2O (pH 7.0) at approximately 1 mg mL^–1. The individual proteins were prepared in PBS and incubated at 37 °C for 30 min. All samples were prepared at a final concentration of 150 μM and were initially scanned at 3000 rpm for 10 min to identify the appropriate wavelength for data collection. Data were collected at 60 000 rpm at a wavelength of 280 nm. Sedimentation coefficient distribution, c(s), and molecular mass distribution, c(M), were calculated using the SEDFIT program.
Table S1. […]
Sedimentation equilibrium studies were performed at a concentration of 150 μM in PBS (pH 7.4) and a rotor speed of
60,000 rpm at 20 °C. b The theoretical molecular mass for the HR peptides in the monomeric conformation.
as §5, §6

[6] = Chemical denaturation by Gdn·HCl followed by CD at 222 nm; assay type: physicochemical; settings: 7 M Gdn·HCl in PBS pH 7.4, 3 h at room temperature, CD 222 nm (Fig. 3C)
Procedure: For thermal denaturation studies, the stock peptide solutions were diluted with appropriate volumes of buffer and guanidine hydrochloride.

[7] = CD spectroscopy, α-helicity; assay type: physicochemical; settings: CD in PBS, pH 7.4, final peptide concentration 10 μM, pre-incubated 37 °C 0.5 h
Procedure: as §2, §3, §4

[8] = molecular target: proteinase K (Parengyodontium album, UniProt P06873); settings: 20 ng/mL proteinase K in PBS, peptide 10 μg/mL, LC-MS/MS (SIM) (Fig. 4A)
Procedure: (§7) Qualification assay. Chromatographic analyses were performed using an ODS-C8 column (5 μm, 100 mm × 2.0mm ID) kept at ambient temperature. The mobile phase was composed of acetonitrile-water-formic acid in the ratio of 60:40:0.1 (v/v/v) at a flow rate of 0.3 mL/min. The sample injection volume was 10 μL. Acetonitrile was HPLC grade, and other chemical reagents and solvents were analytical grade. A Thermo TSQ Quantum Discovery MAX triple–quadruple tandem mass spectrometer equipped with ESI source (San Jose, CA) and Surveyor LC pump were used for LC-MS/MS analysis. Data acquisition and data processing were performed by using Xcalibur software and LCQuan 2.0 data analysis program (Thermo Finnigan), respectively. Optimized MS parameters were as below: 4800 V spray voltage, 10.0 psi sheath gas pressure, 1.0 psi auxiliary valve flow, and 300 °C of capillary temperature. When running collision-induced dissociation (CID), the pressure was set to 1.5 mTorr. The selected ion monitoring (SIM) mode was preformed for T20
(§8) Preparation of Samples. By use of a simple protein precipitation method, a test compound was extracted from liver
(§9) homogenate and 20 ng/mL proteinase K in PBS, respectively. Samples for standard curves were prepared by spiking 50
(§10) μL of rat liver homogenate or 20 ng/mL proteinase K with 100 μL of various concentrations of each test compound
(§11) ranging from 0.1－5 μg/mL in ethanol. […]

[9] = rat (Sprague-Dawley, three pooled) liver homogenate, 4 mL Tris–HCl 50 mM pH 7.4 per g, 9,000g supernatant, peptide 10 μg/mL, LC-MS/MS (SIM) (Fig. 4B)
Procedure: as §7, §8, §9, §10, §11

Chain of proteinase K (P06873 106-384): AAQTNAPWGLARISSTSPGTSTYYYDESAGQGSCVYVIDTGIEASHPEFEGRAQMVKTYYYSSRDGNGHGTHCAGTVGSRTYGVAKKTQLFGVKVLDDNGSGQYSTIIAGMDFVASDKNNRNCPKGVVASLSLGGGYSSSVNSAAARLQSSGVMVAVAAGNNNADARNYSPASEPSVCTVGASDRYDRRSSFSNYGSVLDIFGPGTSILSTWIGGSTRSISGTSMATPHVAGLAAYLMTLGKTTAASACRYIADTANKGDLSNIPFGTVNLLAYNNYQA

For “I: Ac-WRIQQIEQKIHHIEQRIQQIEQRIQQIEQ-NH2 / II: Ac-WRIQQIEQKIHHIEQRIQQIEQRIQQIEQ-NH2 / III: Ac-WRIQQIEQKIHHIEQRIQQIEQRIQQIEQ-NH2 (amide I:9-III:14, I:14-II:9, II:14-III:9) [(4HR)3]”, which EC50 [1] is on record?
Its EC50 is > 5000 nM.

What about the EC50 [2] of the same molecule?
The EC50 was > 10000 nM.

What about the EC50 [3] of the same molecule?
Its EC50 is > 10000 nM.

What about the “Tm (°C)” value [4] of the same molecule?
Its value is “higher than 90 °C”.

And the “Sedimentation coefficient” value [5]?
The value was 1.5 s.

What about the “Observed molecular mass (kDa) by sedimentation analysis” value (from here on “Observed molecular mass (kDa)”) [5] of the same molecule?
Its value is 13.3 kDa.

What about the “[θ]G/[θ]0 ([θ]222 with Gdn·HCl vs. without) / resistance to Gdn·HCl unfolding” value [6] of the same molecule?
Its value is “almost unbreakable”.

With “I: Ac-WRIQQIEQKIHHIEQRIQQIEQ-NH2 / II: Ac-WRIQQIEQKIHHIEQRIQQIEQ-NH2 / III: Ac-WRIQQIEQKIHHIEQRIQQIEQ-NH2 (amide I:9-III:14, I:14-II:9, II:14-III:9) [(3HR)3]” as the molecule, how does the EC50 [1] read?
Its EC50 is > 5000 nM.

And the EC50 [2]?
The EC50 was > 10000 nM.

What about the EC50 [3] of the same molecule?
Its EC50 is > 10000 nM.

What about the “Helicity (%)” value [7] of the same molecule?
Its value is 83.4%.

What about the “Tm (°C)” value [4] of the same molecule?
The value was “higher than 90 °C”.

And the “Sedimentation coefficient” value [5]?
The value was 1.2 s.

What about the “Observed molecular mass (kDa)” value [5] of the same molecule?
Its value is 9.2 kDa.

And the “[θ]G/[θ]0 ([θ]222 with Gdn·HCl vs. without) / resistance to Gdn·HCl unfolding” value [6]?
Its value is “almost unbreakable”.

For CC[C@H](C)[C@H](NC(C)=O)C(=O)N[C@@H](CCC(=O)O)C(=O)N[C@@H](C)C(=O)N[C@@H](CCC(N)=O)C(=O)N[C@@H](CCC(N)=O)C(=O)N[C@@H](Cc1c[nH]cn1)C(=O)N[C@@H](CC(C)C)C(=O)N[C@@H](CC(C)C)C(=O)N[C@@H](CCC(N)=O)C(=O)N[C@@H](CC(C)C)C(=O)N[C@H](C(=O)N[C@H](C(=O)N[C@@H](Cc1c[nH]c2ccccc12)C(=O)NCC(=O)N[C@H](C(=O)N[C@@H](CCCCN)C(=O)N[C@@H](CCC(N)=O)C(=O)N[C@@H](CC(C)C)C(=O)N[C@@H](CCC(N)=O)C(=O)N[C@@H](C)C(=O)N[C@@H](CCCNC(=N)N)C(=O)N[C@H](C(=O)N[C@@H](CC(C)C)C(N)=O)[C@@H](C)CC)[C@@H](C)CC)C(C)C)[C@@H](C)O [Compound N23, reference compound] (Ac-IEAQQHLLQLTVWGIKQLQARIL-NH2), which EC50 [1] is on record?
Its EC50 is > 5000 nM.

What about the EC50 [2] of the same molecule?
The EC50 was > 10000 nM.

What about the EC50 [3] of the same molecule?
The EC50 was > 10000 nM.

What about the “Helicity (%)” value [7] of the same molecule?
The value was 16.8%.

What about the “Tm (°C)” value [4] of the same molecule?
The value was “not detected”.

Which results are given for “W RIQQIEQ KI HHIE Q RIQQIEQ RIEAQQH LLQLTVW GIKQLQA RIL (sidechain bridge or staple) [(3HRN23)3]”?
EC50 [1]: 10.2 ± 0.9 nM; EC50 [2]: 21.3 ± 1.8 nM; EC50 [3]: 58.2 ± 1.5 nM; Helicity (%) [7]: 89.6%; Tm (°C) [4]: > 90 °C; Sedimentation coefficient [5]: 1.6 s; Observed molecular mass (kDa) by sedimentation analysis [5]: 17.3 kDa; proteolytic stability in proteinase K, compared with T20 [8]: much more resistant than T20; proteolytic stability in liver homogenate, compared with T20 [9]: much more resistant than T20

Which “Helicity (%)” value [7] does the source give for CC[C@H](C)[C@H](NC(=O)[C@H](CCC(N)=O)NC(=O)[C@H](CCC(N)=O)NC(=O)[C@@H](NC(=O)[C@H](CCCNC(=N)N)NC(=O)[C@H](CCC(N)=O)NC(=O)[C@H](CCC(=O)O)NC(=O)[C@@H](NC(=O)[C@H](CCC(N)=O)NC(=O)[C@H](CCC(N)=O)NC(=O)[C@@H](NC(=O)[C@H](CCCNC(=N)N)NC(=O)[C@H](CCC(N)=O)NC(=O)[C@H](CCC(=O)O)NC(=O)[C@@H](NC(=O)[C@H](Cc1c[nH]cn1)NC(=O)[C@H](Cc1c[nH]cn1)NC(=O)[C@@H](NC(=O)[C@H](CCCCN)NC(=O)[C@H](CCC(N)=O)NC(=O)[C@H](CCC(=O)O)NC(=O)[C@@H](NC(=O)[C@H](CCC(N)=O)NC(=O)[C@H](CCC(N)=O)NC(=O)[C@@H](NC(=O)[C@H](CCCNC(=N)N)NC(=O)[C@H](Cc1c[nH]c2ccccc12)NC(C)=O)[C@@H](C)CC)[C@@H](C)CC)[C@@H](C)CC)[C@@H](C)CC)[C@@H](C)CC)[C@@H](C)CC)[C@@H](C)CC)C(=O)N[C@@H](CCC(=O)O)C(=O)N[C@@H](CCC(N)=O)C(N)=O [Compound 4HR] (Ac-WRIQQIEQKIHHIEQRIQQIEQRIQQIEQ-NH2) here?
The value was 99.5%.

What about the “Tm (°C)” value [4] of the same molecule?
Its value is “higher than 90 °C”.

What about the “Sedimentation coefficient” value [5] of the same molecule?
The value was 1.3 s.

What about the “Observed molecular mass (kDa)” value [5] of the same molecule?
The value was 10.5 kDa.

And the “[θ]G/[θ]0 ([θ]222 with Gdn·HCl vs. without) / resistance to Gdn·HCl unfolding” value [6]?
The value was ~0.2.

With CC[C@H](C)[C@H](NC(=O)[C@H](CCC(N)=O)NC(=O)[C@H](CCC(N)=O)NC(=O)[C@@H](NC(=O)[C@H](CCCNC(=N)N)NC(=O)[C@H](CCC(N)=O)NC(=O)[C@H](CCC(=O)O)NC(=O)[C@@H](NC(=O)[C@H](Cc1c[nH]cn1)NC(=O)[C@H](Cc1c[nH]cn1)NC(=O)[C@@H](NC(=O)[C@H](CCCCN)NC(=O)[C@H](CCC(N)=O)NC(=O)[C@H](CCC(=O)O)NC(=O)[C@@H](NC(=O)[C@H](CCC(N)=O)NC(=O)[C@H](CCC(N)=O)NC(=O)[C@@H](NC(=O)[C@H](CCCNC(=N)N)NC(=O)[C@H](Cc1c[nH]c2ccccc12)NC(C)=O)[C@@H](C)CC)[C@@H](C)CC)[C@@H](C)CC)[C@@H](C)CC)[C@@H](C)CC)C(=O)N[C@@H](CCC(=O)O)C(=O)N[C@@H](CCC(N)=O)C(N)=O [Compound 3HR] (Ac-WRIQQIEQKIHHIEQRIQQIEQ-NH2) as the molecule, how does the “Helicity (%)” value [7] read?
The value was 46.4%.

What about the “Tm (°C)” value [4] of the same molecule?
The value was 44 °C.

And the “Sedimentation coefficient” value [5]?
The value was 1.2 s.

What about the “Observed molecular mass (kDa)” value [5] of the same molecule?
The value was 9.9 kDa.

And the “[θ]G/[θ]0 ([θ]222 with Gdn·HCl vs. without) / resistance to Gdn·HCl unfolding” value [6]?
Its value is “completely lost its tertiary structure”.
